From PubChem BioAssay AID1850 (Southern Research Specialized Biocontainment Screening …, 2009)
pIC50: −log10 of the molar value.

System: Salmonella Typhi PhoP-promoter GFP reporter, fluorescence, 4 h
Test: Inhibition of PhoP regulon, Salmonella typhi GFP reporter cells, confirmation, 4 h (AID 1850)

| SMILES | pIC50 |
| --- | --- |
| OCCNc1nc(Nc2ccc(Br)cc2)nc2ccccc12 | 5.16 |
| OCCN1CCN(C2Cc3cc(Cl)ccc3Sc3ccc(Cl)cc32)CC1 (centres undefined) (tested in a mixture with another compound) | 4.46 |
| Cc1cc([N+](=O)[O-])cc(/C=N\NC(=O)C2COc3ccccc3O2)c1O (centres undefined) | 4.29 |
| C#CCOCCOCCOCCNc1nc(N2CCN(C(=O)CCCCCCCCCCNC(=O)[C@H](CCCCN)n3cc(C)nn3)CC2)nc(N2CCN(C(=O)CCCCCCCCCCNC(=O)[C@H](CO)n3cc(CCCSC)nn3)CC2)n1 | 3.95 |
| CSc1ccc2c(c1)C(N1CCN(C)CC1)Cc1ccccc1S2 (centres undefined) | 4.40 |
| O=C(CN1CC(c2ccccc2)CC1=O)N/N=C/c1cc(Br)ccc1O (centres undefined) | 4.18 |
| C(=N\Nc1ccccn1)/c1cccnc1 | 4.47 |
| c1ccc(CN2CCN(c3ncnc4c3[nH]c3ccccc34)CC2)cc1 | 4.42 |
| Clc1cc(Br)ccc1OCCCNCc1ccccc1 | 4.44 |
| O=[N+]([O-])c1ccc(O)c2ncccc12 | 6.02 |
| C(=N/Nc1nccs1)/c1cccnc1 | 4.33 |
| O=C(CSc1nnc(-c2ccccc2)n1-c1ccc(Cl)cc1)NC1CCS(=O)(=O)C1 (centres undefined) | 4.13 |
| O=C(O)c1ccc(N2C(=O)CC(N3C(=O)/C(=C/c4ccc(Cl)cc4)SC3=S)C2=O)cc1 (centres undefined) | 4.46 |
| CSc1ccc2c(c1)C(N1CCN(C)CC1)Cc1ccc(F)cc1S2 (centres undefined) | 4.43 |
| CN1CCCN(C(c2ccccc2)c2ccc(Cl)cc2)CC1 (centres undefined) | 4.06 |
| O=c1[nH]cc(F)c(=O)[nH]1 | 5.52 |
| CO[C@H]1C=CO[C@@]2(C)Oc3c(C)c(O)c4c(O)c(c5c(c4c3C2=O)NC2(CCN(CC(C)C)CC2)N=5)=NC(=O)C(C)=CC=C[C@H](C)[C@H](O)[C@@H](C)[C@@H](O)[C@@H](C)[C@H](OC(C)=O)[C@@H]1C | 5.82 |
| C1=C(CCNCc2ccccc2)CCCC1 | 5.20 |
| CC(=O)NC(c1ccc2ccccc2c1)c1ccc2cccnc2c1O (centres undefined) | 3.98 |
| C#CCOCCOCCOCCNc1nc(N2CCN(C(=O)CCCCCCCCCCNC(=O)[C@H](CCCCN)n3cc(C)nn3)CC2)nc(N2CCN(C(=O)CCCCCCCCCCNC(=O)[C@H](CCCN=C(N)N)n3cc(C[C@@H](C)CC)nn3)CC2)n1 | 4.49 |
| C#CCOCCOCCOCCNc1nc(N2CCN(C(=O)C(Cc3ccc(O)cc3)n3cc(C(N)CC(C)C)nn3)CC2)nc(N2CCN(C(=O)C(Cc3cc4ccccc4[nH]3)n3cc(C(N)Cc4ccc(O)cc4)nn3)CC2)n1 (centres undefined) | 3.89 |
| COc1ccc2[nH]c3c(C)c4ccncc4c(C)c3c2c1 | 4.69 |
| CN1CCN(CCCN2c3ccccc3Sc3ccc(C(F)(F)F)cc32)CC1 | 4.33 |
| CCCCCC(CC(=O)NO)C(=O)NC(C(=O)N1CCCC1CO)C(C)C (centres undefined) | 4.81 |
| COc1cc(C(=O)O/N=C2\C=CC(=O)C(C)=C2)cc(OC)c1OC | 3.92 |
| O=C(CN1C2=NCCCN2c2ccccc21)c1ccc([N+](=O)[O-])cc1 | 3.98 |
| N#C/C(=C\c1ccc[nH]1)C(=O)NC1CC1 | 4.13 |

| SMILES | pIC50 |
| --- | --- |
| CN1C(=O)NC(c2ccc(O)cc2)C(C(=O)c2cccs2)C1(O)C(F)(F)F (centres undefined) | 4.42 |
| O=C1OCC(CO)(CO)N=C1NNc1ccc(Cl)c(Cl)c1 | 4.32 |
| CCN1CCCC1CNC(=O)C1CCN(Cc2nc(-c3cccc(Br)c3)oc2C)CC1 (centres undefined) | 3.90 |
| c1ccc(Sc2cccc3ccccc23)c(CNC2=NCCN2)c1 | 4.17 |
| Clc1ccc(C[n+]2cc(-c3ccc(Cl)cc3)n3c2CCC3)cc1 | 4.28 |
| CN(C)C1C(=O)C(C(N)=O)=C(O)C2(O)C(=O)C3=C(O)c4c(O)cccc4C(C)(O)C3C(O)C12 (centres undefined) | 6.00 |
| O=[N+]([O-])c1cc(Cl)c2cccnc2c1O | 5.52 |
| O=C(Nc1nnc(-c2ccco2)o1)c1cccc(Cl)c1 | 4.43 |
| CN(C)CC/C=C1\c2ccc(F)cc2Sc2cc(F)c(Cl)cc21 | 4.49 |
| O=C(CC(=O)c1cc(Cl)ccc1O)c1ccccc1 | 4.70 |
| Clc1ccc2c(c1)C(N1CCNCC1)Cc1ccccc1S2 (centres undefined) | 4.45 |
| O=C(C[n+]1ccc(-c2ccccc2)cc1)Nc1ccc([N+](=O)[O-])cc1 | 4.39 |
| CCN(CC)CCn1c(=N)n(CC(O)COc2cccc(C)c2)c2ccccc21 (centres undefined) | 3.87 |
| Cc1ccc(NC(=O)c2ccccc2)s1 | 4.12 |
| CC(Nc1nc(N2CCCCC2)nc2ccccc12)c1ccccc1 (centres undefined) | 4.41 |
| CCCCC(=O)NC(=S)NNC(=O)CC | 4.15 |
| COc1c2ccccc2nc2ccccc12 | 4.59 |
| Cc1cc([N+](=O)[O-])cc(/C=N/n2c(C)nc3ccccc3c2=O)c1O | 4.11 |
| C#CCOCCOCCOCCNc1nc(N2CCN(C(=O)[C@H](Cc3cc4ccccc4[nH]3)n3cc([C@@H](N)CC(C)C)nn3)CC2)nc(N2CCN(C(=O)[C@H](Cc3cc4ccccc4[nH]3)n3cc([C@@H](N)CC(C)C)nn3)CC2)n1 | 4.40 |
| [O-][n+]1c2c(c3c4non(O)c4ccc31)CCCC2 | 4.13 |
| CC(C)[C@@H]1CC[C@@H](C)C[C@H]1OC(=O)C[n+]1cc(-c2ccc(Cl)cc2)n2c1CCCCC2 | 4.17 |
| Cc1ccc(C(=O)N/C(=C\c2ccc(-c3ccc(Cl)cc3)o2)C(=O)NCCCN(C)C)cc1 | 4.42 |
| CC1=C([N+](=O)[O-])C(c2cccc(Br)c2)C2=C(N1)c1ccccc1C2=O (centres undefined) | 4.74 |
| O=Nc1c(O)c2ccccc2c2ccccc12 | 4.70 |
| Cc1cccc(Nc2nc(NCc3ccco3)c3ccccc3n2)c1 | 5.31 |
| O=c1c2ccccc2[nH]c2ccc(F)cc12 | 4.12 |
| O=C(N/N=C/c1cc(Br)cc(Br)c1O)c1ccncc1 | 4.36 |
